Measured values published in PMC3029310 (Journal of Insect Science, 2010).

System: T1, AChE
T1 construct: gene ace1; native; newly emerged adult males for these rows
Test: Ellman assay (DTNB, […] nm), […] substrate concentrations […]
Type: biochemical, Blattella germanica
Details: newly emerged adult males; pH 7.5; 30 °C

## CC(=O)SCC[N+](C)(C)C [Acetylthiocholine iodide]
  Km: 340 ± 49 µM
